Publication PMC13083723 (Patterns, 2026)
Structures can show the parent of a compound that is named as a salt. Where two headings read alike, the source gives them in different places.

Experiments:
Vero-E6 cells = assay: cells; format: cell-based; settings: for activation at 5 µM / activation at 10 µM / activation at 20 µM: Vero C1008, 24 h; for activation at 5 µM: read-out: PLD Effect in % 5 µM; for activation at 10 µM: read-out: PLD Effect in % 10 µM; for activation at 20 µM: read-out: PLD Effect in % 20 µM
SARS-CoV-2 [1] = settings: cited from earlier work; for Vero-E6 CPE inhibition %: 10 µM; for EC50: read-out: Vero-E6 EC50
SARS-CoV-2 [2] = settings: cited from earlier work; for CaCo2 CPE inhibition %: Caco-2, 20 µM
[3] = Chlorocebus sabaeus, Vero C1008, read-out: PLD EC50
[4] = Chlorocebus sabaeus, Vero C1008, read-out: PLD EC50 µM

Row | SMILES | PLD Effect in % 5 µM (Vero-E6 cells) | PLD Effect in % 10 µM (Vero-E6 cells) | PLD Effect in % 20 µM (Vero-E6 cells) | Vero-E6 CPE inhibition % (SARS-CoV-2 [1]) | CaCo2 CPE inhibition % (SARS-CoV-2 [2]) | EC50 (Vero-E6 cells; read-out: PLD EC50) | EC50 (SARS-CoV-2 [1]) | activation at 5 µM (Vero-E6 cells; Chlorocebus sabaeus) | activation at 10 µM (Vero-E6 cells; Chlorocebus sabaeus) | activation at 20 µM (Vero-E6 cells; Chlorocebus sabaeus) | EC50 (Vero-E6 cells; [3]) | EC50 (Vero-E6 cells; [4]) | PLD induction assay (active) (Vero-E6 cells) | CaCo2 CPE assay (active) (SARS-CoV-2 [2]; Caco-2)
1 | CC(C)c1ccc2c(c1)CC[C@H]1[C@](C)(CN)CCC[C@]21C [Lylamine, reference compound] | 104.48% | 133.55% | -41.01% | -0.36% | 76.43% | – | – | – | – | – | – | – | – | –
2 | COc1ccccc1C1(O)CCN(CCCn2c3ccccc3c3ccccc32)CC1 [NNC-05-2090, reference compound] | 128.41% | 178.14% | 118.98% | -0.32% | 71.83% | 4.91 µM | – | – | – | – | – | – | – | –
3 | CC(C)[C@H]1c2ccc(F)cc2CC[C@@]1(CCN(C)CCCc1nc2ccccc2[nH]1)OC(=O)C1CC1 [NNC-55-0396, reference compound] | 87.06% | 154.81% | -43.08% | 0% | 58.09% | 6.28 µM | 8210 nM | – | – | – | – | – | – | –
4 | CCN(CC)CCCCNc1ncc2cc(-c3c(Cl)cccc3Cl)c(NC(=O)NC(C)(C)C)nc2n1 [PD-161570, reference compound] | 163.59% | 118.17% | 36.18% | 12.35% | 108.10% | 0.63 µM | 145000 nM | – | – | – | – | – | – | –
5 | CCOc1cc2ncc(C#N)c(Nc3ccc(F)c(Cl)c3)c2cc1NC(=O)/C=C/CN(C)C [Pelitinib (EKB-569), Pelitinib, reference compound] | – | – | – | -0.31 | 83.39% | – | – | 76.1% | 85.5% | 101% | – | – | – | –
6 | CCOc1cc(C(C)(C)C)ccc1C1=N[C@@](C)(c2ccc(Cl)cc2)[C@@](C)(c2ccc(Cl)cc2)N1C(=O)N1CCN(CCCS(C)(=O)=O)CC1 [RG7112 (RO50455337), reference compound] | – | – | – | 6.32 | 88.52% | – | – | 109% | 141% | 88.5% | 2.56 µM | – | – | –
7 | COc1ccc(NC(=O)c2ccc(-c3ccc(-c4noc(C)n4)cc3C)cc2)cc1OCCN(C)C [SB-216641, reference compound] | 93.22% | 104.74% | -42.60% | -0.22% | 57.65% | 1.19 µM | – | – | – | – | – | – | – | –
8 | Cc1ccc(C(=O)N(CCCN)[C@@H](c2oc3cc(Cl)ccc3c(=O)c2Cc2ccccc2)C(C)C)cc1 [SB-743921, reference compound] | – | – | – | -0.36% | 78.89% | – | – | 172% | 224% | -43.6% | – | 2.49 µM | – | –
9 | COC(=O)C1=C(C)NC(C)=C(C(=O)NCCCN2CCC(c3ccccc3)(c3ccccc3)CC2)C1c1ccc([N+](=O)[O-])cc1 (stereo not drawn) [SNAP-5089, reference compound] | – | – | – | -0.12% | 72.63% | – | – | 66.5% | 78.4% | 24.9% | – | 2.01 µM | – | –
10 | COc1ccc(CCN(C)CCCOc2ccc(S(=O)(=O)c3c(C(C)C)c4ccccc4n3C)cc2)cc1OC [SR-33805 oxalate, reference compound] | 54.44% | 86.07% | 137.08% | 0.02 | 67.72% | 9.26 µM | – | – | – | – | – | – | – | –
11 | COc1cc(C(=O)NC2CCN(C)CC2)c(F)cc1Nc1ncc2c(n1)N(C1CCCC1)CC(F)(F)C(=O)N2C [TAK-960, reference compound] | – | – | – | 2.67% | 91.64% | – | – | – | – | – | – | – | – | –
12 | CN(C)CCNc1nc2cc(O)ccc2c2c1C(=O)c1ccccc1-2 [TAS-103, reference compound] | 135.39% | 172.31% | 121.21% | -0.08% | 92.56% | 2.29 µM | – | – | – | – | – | – | – | –
13 | COc1cc2c(Nc3ccc(Br)cc3F)ncnc2cc1OCC1CCN(C)CC1 [Vandetanib (ZD6474), Vandetanib, reference compound] | – | – | – | 0.29 | 51.24 | – | – | 129% | 136% | -32.7% | 1.05 µM | – | – | –
14 | Cc1ccc(NC(=O)c2ccc(CN3CCN(C)CC3)cc2)cc1Nc1nc(-c2cccnc2)cs1 [masitinib (AB1010), masitinib, reference compound] | – | – | – | – | 107.90% | – | – | 43.1% | 45.2% | 53.3% | 2.57 µM | – | active | active
